Drawing on patent US20140235643A1, “NOVEL QUINOXALINE INHIBITORS OF PI3K” (GILEAD CALISTOGA LLC, priority 2011, published 2014), this text covers EC50, inhibition and IC50 for 7 molecules.

The target in one experiment is T1, PI3Kγ (Mus musculus, UniProt Q9JHG7).
T1 construct: endogenous in cells; host or cells: RAW-264 macrophage cells (ATCC)
The experiment can be described thus: PI3Kγ-dependent cell-based assay: C5a-mediated AKT phosphorylation in RAW-264 cells. Set-up: species or system murine. The conditions noted are these: C5a-induced AKT phosphorylation, RAW-264 macrophages. The protocol: (§1) PDGF-BB-induced AKT phosphorylation in Swiss-3T3 fibroblasts is mediated by p110α. C5a-induced AKT phosphorylation in RAW-264 murine macrophages is mediated exclusively by p110γ.
PI3Kγ-Dependent Cell-Based Assay: C5a-Mediated AKT Phosphorylation in RAW-264 Cells
RAW-264 macrophage cells (American Type Culture Collection) were cultured with Dulbecco's modified Eagle medium (DMEM) containing 10% fetal bovine serum and the antibiotics penicillin and streptomycin. Cells were seeded on a 96-well Tissue Culture Plate at 100,000 to 200,000 cells/well the day before the experiment. Next day, cells were starved for 2 hr in 0.1% FBS containing medium. The cells were pretreated with inhibitors or DMSO for 2 hr and stimulated for 5 min with 75 ng/ml C5a (R&D) at 37° C. in 5% CO2. The culture medium was removed and cells were fixed for 20 min at room temperature by addition of 100 μl of 4% cell fixing buffer to each well. AKT phosphorylation and total AKT was detected by ELISA.
(§2) Detection of Phospho-Ser-473 AKT and Total AKT by ELISA
(§3) The fixed cells were washed twice with 150 μl of wash buffer (WB) and quenched by incubating with 100 μl of Quenching Buffer for 20 min at room temperature. Cells were washed once with 150 μl WB and blocked by incubating with 100 μl of Blocking Buffer for 1 hr at room temperature. Cells were incubated with 50 μl of primary antibody diluted in Blocking Buffer, either phospho-Ser-473 AKT specific (1:150 dilution) or total-AKT antibody (1:200 dilution), to each specific well. The negative control wells contained 50 μl of Blocking Buffer. Plates were sealed with plate sealing film and incubated overnight at 4° C. Cells were washed twice with 150 μl WB followed by addition of 50 μl per well of DELFIA secondary antibody (50 ng/well, diluted in DELFIA Assay Buffer). After 2 hr incubation at room temperature, cells were washed 4 times with 150 μl of Europium Wash Solution followed by addition of 100 μl of DELFIA Enhancing Solution to each well. Plates were incubated for 5 min in the dark and fluorescent signal was read using SpectraMax M5™ (Molecular Devices). Total AKT level was determined to verify equal cell number per well. The average background fluorescence values from wells that received vehicle control in the absence of PDGF-BB or C5a were subtracted from all the values of experimental conditions. Fluorescence values corresponding to phosphorylated AKT from wells that received PDGF-BB or C5a were normalized to 100% and compound effect was plotted as % change relative to the vehicle control.

A further experiment deals with T2, PI3Kα (Mus musculus, UniProt P42337).
T2 construct: endogenous in cells; host or cells: Swiss-3T3 fibroblasts (ATCC)
T2 sequence (P42337 whole entry): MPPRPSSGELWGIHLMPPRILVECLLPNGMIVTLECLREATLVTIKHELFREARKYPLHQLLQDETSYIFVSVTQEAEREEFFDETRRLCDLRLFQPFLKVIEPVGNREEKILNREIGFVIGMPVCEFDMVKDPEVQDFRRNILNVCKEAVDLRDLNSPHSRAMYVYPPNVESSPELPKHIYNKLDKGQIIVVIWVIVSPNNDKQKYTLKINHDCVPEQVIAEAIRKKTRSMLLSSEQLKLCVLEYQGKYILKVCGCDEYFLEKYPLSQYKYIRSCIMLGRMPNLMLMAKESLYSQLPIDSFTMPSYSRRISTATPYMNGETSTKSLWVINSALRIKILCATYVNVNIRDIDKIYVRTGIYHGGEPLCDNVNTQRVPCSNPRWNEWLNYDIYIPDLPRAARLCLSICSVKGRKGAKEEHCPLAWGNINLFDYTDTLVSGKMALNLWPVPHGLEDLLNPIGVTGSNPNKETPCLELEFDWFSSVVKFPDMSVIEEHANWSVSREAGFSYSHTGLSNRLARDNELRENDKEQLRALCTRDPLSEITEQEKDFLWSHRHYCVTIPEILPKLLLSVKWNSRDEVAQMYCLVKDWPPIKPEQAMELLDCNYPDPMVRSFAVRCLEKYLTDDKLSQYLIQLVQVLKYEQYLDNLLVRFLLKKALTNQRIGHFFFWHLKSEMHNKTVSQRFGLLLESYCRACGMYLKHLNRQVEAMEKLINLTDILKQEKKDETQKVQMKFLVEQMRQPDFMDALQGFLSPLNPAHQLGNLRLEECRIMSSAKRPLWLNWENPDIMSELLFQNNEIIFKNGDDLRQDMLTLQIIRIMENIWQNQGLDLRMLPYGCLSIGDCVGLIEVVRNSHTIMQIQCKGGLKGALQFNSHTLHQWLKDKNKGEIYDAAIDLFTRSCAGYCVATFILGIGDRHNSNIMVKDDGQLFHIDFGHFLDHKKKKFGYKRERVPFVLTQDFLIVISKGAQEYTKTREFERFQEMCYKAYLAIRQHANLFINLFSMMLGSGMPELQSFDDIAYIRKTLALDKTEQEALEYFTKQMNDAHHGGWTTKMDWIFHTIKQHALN
T2 sequence (P26450 whole entry partner): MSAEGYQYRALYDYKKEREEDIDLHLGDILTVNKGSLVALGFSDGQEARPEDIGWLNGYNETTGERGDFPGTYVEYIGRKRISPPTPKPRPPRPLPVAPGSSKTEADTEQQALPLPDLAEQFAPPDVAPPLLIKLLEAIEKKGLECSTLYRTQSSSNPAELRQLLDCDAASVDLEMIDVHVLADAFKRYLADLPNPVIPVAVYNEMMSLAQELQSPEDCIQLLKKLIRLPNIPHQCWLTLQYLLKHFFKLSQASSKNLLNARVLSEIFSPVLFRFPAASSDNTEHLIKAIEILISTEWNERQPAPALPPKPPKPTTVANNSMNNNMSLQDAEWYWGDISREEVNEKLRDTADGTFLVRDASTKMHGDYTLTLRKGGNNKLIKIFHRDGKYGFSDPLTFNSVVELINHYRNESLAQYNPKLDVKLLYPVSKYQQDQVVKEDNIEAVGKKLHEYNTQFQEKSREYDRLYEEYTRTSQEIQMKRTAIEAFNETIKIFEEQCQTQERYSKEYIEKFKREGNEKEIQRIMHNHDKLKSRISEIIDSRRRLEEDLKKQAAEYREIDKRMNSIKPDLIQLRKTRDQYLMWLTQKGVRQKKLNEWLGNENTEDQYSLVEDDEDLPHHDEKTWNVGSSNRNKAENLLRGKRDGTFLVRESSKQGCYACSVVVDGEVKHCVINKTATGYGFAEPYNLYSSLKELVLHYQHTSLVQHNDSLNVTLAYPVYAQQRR
The experiment can be described thus: PI3Kα-dependent cell-based assay: PDGF-BB mediated AKT phosphorylation in Swiss-3T3 cells. The note with it: PDGF-BB-induced AKT phosphorylation, Swiss-3T3 fibroblasts. The protocol:
as §1
PI3Kα-Dependent Cell-Based Assay: PDGF-BB Mediated AKT Phosphorylation in Swiss-3T3 Cells
Swiss-3T3 fibroblasts (American Type Culture Collection) were cultured with DMEM containing 10% fetal bovine serum and the antibiotics penicillin and streptomycin. Cells were seeded on a 96-well Tissue Culture Plate at 25,000 cells/well and allowed to reach at least 90% confluency. The cells were starved for 2 to 12 hr in 0.1% FBS containing medium and then were pretreated with inhibitors or DMSO for 2 hr. The cells were stimulated for 15 min with 10 ng/ml PDGF-BB (Cell Signaling Technology) at 37° C. in 5% CO2. The culture medium was removed and cells were fixed for 20 min at room temperature by addition of 100 μl of 4% cell fixing buffer to each well. AKT phosphorylation and total AKT was detected by ELISA.
as §2, §3

The target in a further experiment is T3, PI3Kγ (p110 gamma) (Homo sapiens, UniProt P48736).
T3 construct: purchased Invitrogen
T3 sequence (P48736 whole entry): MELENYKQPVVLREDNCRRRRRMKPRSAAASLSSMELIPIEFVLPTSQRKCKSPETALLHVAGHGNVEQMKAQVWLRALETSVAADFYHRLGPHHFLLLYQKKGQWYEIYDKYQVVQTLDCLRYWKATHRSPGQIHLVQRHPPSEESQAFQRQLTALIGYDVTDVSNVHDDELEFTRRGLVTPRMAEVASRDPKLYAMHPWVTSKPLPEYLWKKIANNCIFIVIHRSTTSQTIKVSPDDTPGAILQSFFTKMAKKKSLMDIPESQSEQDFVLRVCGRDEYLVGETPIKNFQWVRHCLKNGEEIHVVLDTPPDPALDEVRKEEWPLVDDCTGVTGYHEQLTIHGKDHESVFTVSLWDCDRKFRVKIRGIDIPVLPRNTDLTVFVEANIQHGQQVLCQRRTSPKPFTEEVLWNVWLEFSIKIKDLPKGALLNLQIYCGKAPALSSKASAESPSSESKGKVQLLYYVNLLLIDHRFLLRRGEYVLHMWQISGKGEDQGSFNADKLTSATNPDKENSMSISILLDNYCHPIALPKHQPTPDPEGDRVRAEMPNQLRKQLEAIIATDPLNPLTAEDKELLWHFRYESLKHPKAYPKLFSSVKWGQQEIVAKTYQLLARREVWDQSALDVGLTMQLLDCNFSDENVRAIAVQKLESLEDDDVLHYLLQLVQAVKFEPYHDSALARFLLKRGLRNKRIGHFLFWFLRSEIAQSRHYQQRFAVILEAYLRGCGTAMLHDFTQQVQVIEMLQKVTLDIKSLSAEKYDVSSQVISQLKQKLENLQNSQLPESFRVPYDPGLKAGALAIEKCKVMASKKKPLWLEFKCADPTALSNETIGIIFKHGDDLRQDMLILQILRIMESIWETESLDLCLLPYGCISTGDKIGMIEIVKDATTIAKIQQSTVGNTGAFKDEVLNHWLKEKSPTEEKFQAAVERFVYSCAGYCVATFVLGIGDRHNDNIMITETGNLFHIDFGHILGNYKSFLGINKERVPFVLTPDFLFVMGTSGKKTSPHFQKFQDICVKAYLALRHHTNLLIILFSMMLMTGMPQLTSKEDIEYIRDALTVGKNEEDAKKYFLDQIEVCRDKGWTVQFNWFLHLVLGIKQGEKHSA
As to the kind of experiment: PI3K biochemical enzyme assay (Adapta universal kinase assay), p110 gamma. The conditions noted are these: for IC50: Table 2, PI3k biochemical assays, read-out: p120γ IC50. The protocol: (§4) This example describes a method of obtaining in vitro activity data concerning the effect of compounds of on various PI3K isoforms. The effect of compounds on the kinase activity of Class I PI3Ks was measured at Invitrogen by using the Adapta® universal kinase assay. It was a homogenous, fluorescent based immunoassay for the detection of ADP produced by the kinase reaction. This assay can be divided into two phases: a kinase reaction phase, and an ADP detection phase. In the kinase reaction phase, all components required for the kinase reaction were added to the well, and the reaction was allowed to incubate for 60 minutes. After the reaction, a detection solution consisting of a europium labeled anti-ADP antibody, an Alexa Fluor® 647 labeled ADP tracer, and EDTA (to stop the kinase reaction) was added to the assay well. ADP formed by the kinase reaction (in the absence of an inhibitor) displaced the Alexa Fluor® 647 labeled ADP tracer from the antibody, resulting in a decrease in the TR-FRET signal.
(§5) ADP formation was determined by calculating the emission ratio from the assay well. The emission ratio was calculated by dividing the intensity of the tracer (acceptor) emission by the intensity of the Eu (donor) emission at 615 nm as shown in the equation below.
(§6) The Test Compounds were screened in 1% DMSO (final) in the well. All Substrate/Kinase Mixtures were diluted to a 2× working concentration in the appropriate Kinase Buffer as described below for the individual kinase:
The 2× p110 gamma/PIP2:PS mixture was prepared in 50 mM HEPES pH 7.5, 1 mM EGTA, 3 mM mgCl2. The final […] Kinase Reaction consisted of 3.5-26 ng p110 gamma and 50 μM PIP2:PS in 32.5 mM HEPES pH 7.5, 0.5 mM EGTA, 1.5 mM mgCl2. After the 1 hour Kinase Reaction incubation, 5 μL of Detection Mix was added.
(§7) The Detection mix consisted of EDTA (30 mM), Eu-anti-ADP antibody (30 nM) and ADP tracer. All ATP Solutions were diluted to a 4× working concentration in water and used at the Km apparent concentrations for each individual kinase.

In the next experiment the target is T4, PI3Kα (p110α/p85α) (Homo sapiens, UniProt P42336).
T4 construct: purchased Invitrogen
T4 sequence (P42336 whole entry): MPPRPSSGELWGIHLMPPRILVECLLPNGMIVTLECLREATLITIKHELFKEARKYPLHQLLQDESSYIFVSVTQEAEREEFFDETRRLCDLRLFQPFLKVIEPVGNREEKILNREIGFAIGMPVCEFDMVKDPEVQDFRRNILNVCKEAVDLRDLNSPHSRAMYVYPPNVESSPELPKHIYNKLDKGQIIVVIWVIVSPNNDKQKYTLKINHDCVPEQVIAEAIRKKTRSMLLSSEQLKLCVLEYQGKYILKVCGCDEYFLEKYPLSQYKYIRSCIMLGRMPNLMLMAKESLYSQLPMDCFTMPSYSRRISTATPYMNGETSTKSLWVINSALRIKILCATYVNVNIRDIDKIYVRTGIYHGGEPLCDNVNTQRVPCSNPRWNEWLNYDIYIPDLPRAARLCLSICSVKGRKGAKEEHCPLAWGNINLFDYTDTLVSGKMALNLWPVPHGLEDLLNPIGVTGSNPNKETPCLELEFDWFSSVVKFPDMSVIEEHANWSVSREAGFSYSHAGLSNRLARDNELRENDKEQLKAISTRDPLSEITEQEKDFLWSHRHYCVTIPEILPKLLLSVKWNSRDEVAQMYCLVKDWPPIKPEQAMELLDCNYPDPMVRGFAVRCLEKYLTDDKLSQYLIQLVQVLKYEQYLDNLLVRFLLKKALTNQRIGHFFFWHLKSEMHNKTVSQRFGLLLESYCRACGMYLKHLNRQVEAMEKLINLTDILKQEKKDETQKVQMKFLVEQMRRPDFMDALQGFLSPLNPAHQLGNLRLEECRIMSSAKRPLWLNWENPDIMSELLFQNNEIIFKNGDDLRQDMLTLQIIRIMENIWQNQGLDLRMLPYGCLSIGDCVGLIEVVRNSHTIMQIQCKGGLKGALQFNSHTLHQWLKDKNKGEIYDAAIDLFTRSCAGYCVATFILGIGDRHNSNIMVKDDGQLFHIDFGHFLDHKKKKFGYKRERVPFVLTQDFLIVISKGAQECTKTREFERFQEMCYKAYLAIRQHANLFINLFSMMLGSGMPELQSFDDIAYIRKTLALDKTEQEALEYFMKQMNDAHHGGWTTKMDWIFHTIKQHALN
T4 sequence (P27986 whole entry partner): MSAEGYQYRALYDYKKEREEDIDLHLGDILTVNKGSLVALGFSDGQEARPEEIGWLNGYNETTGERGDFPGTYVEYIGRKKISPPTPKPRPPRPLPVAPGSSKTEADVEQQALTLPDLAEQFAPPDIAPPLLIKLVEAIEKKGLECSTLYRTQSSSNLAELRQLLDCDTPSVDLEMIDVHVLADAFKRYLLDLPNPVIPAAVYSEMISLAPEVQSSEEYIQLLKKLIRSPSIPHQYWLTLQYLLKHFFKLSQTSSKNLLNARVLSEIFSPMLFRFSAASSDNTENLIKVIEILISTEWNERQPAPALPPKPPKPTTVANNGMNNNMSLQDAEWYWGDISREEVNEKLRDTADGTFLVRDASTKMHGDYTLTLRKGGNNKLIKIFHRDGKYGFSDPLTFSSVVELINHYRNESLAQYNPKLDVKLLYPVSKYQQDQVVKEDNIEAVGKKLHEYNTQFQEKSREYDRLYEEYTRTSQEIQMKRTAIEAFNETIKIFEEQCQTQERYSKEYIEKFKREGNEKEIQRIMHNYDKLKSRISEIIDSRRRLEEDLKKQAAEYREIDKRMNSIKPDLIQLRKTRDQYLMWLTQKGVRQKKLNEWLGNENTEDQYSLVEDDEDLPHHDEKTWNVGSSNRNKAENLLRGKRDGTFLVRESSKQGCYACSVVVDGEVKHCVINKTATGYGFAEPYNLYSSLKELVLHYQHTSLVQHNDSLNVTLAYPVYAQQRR
The experiment can be described thus: PI3K biochemical enzyme assay (Adapta universal kinase assay), p110 alpha/p85 alpha. The note with it: for inhibition at 10 µM / inhibition at 1 µM: read-out: PI3Kα % inhib; for IC50: Table 2, PI3k biochemical assays, read-out: p110α/p85α IC50. The procedure:
as §4, §5, §6
The 2× p110 alpha/p85 alpha/PIP2:PS mixture was prepared in 50 mM HEPES pH 7.5, 100 mM NaCl, 0.03% CHAPS, 3 mM mgCl2, 1 mM EGTA. The final 10 μL Kinase Reaction consisted of 0.3-1.5 ng p110 alpha/p85 alpha and 50 μM PIP2:PS in 32.5 mM HEPES pH 7.5, 50 mM NaCl, 0.015% CHAPS, 1.5 mM mgCl2, 0.5 mM EGTA. After the 1 hour Kinase Reaction incubation, 5 μL of Detection Mix was added.
as §7

Consider `Cc1cccc(-c2nc3ccccc3nc2C(C)Nc2ncnc3[nH]cnc23)c1` (centres unmarked) [Compound Q3], for which the half-maximal effective concentration (EC50) on PI3Kγ and at PI3Kα was > 20 µM throughout. Further, at PI3Kγ (p110 gamma) (read-out: PI3Kγ % inhib), the inhibition at 1 µM turned out to be 51%. Besides, the values for the inhibition at 10 µM at PI3Kγ (p110 gamma) (read-out: PI3Kγ % inhib) and on PI3Kα (p110α/p85α) were 94% and 65%, respectively. Further, the IC50 at PI3Kγ (p110 gamma) was 2.07 µM; on PI3Kα (p110α/p85α), > 10 µM.

Regarding `CC(Nc1ncnc2[nH]cnc12)c1nc2ccccc2nc1-c1cc(F)cc(F)c1` (centres unmarked) [Compound Q2, N-{1-[3-(3,5-difluorophenyl)quinoxalin-2-yl]ethyl}-9H-purin-6-amine], the EC50 at PI3Kγ and at PI3Kα was > 20 µM each time. Moreover, at PI3Kγ (p110 gamma) (read-out: PI3Kγ % inhib), the inhibition at 1 µM is 42%. The inhibition at 10 µM was 86% at PI3Kγ (p110 gamma) (read-out: PI3Kγ % inhib) and 47% on PI3Kα (p110α/p85α). Also, the results for the IC50 at PI3Kγ (p110 gamma) and at PI3Kα (p110α/p85α) were 5.79 µM and > 10 µM, respectively.

With `Cc1cccc2nc(C(C)Nc3nc(N)nc4[nH]cnc34)c(-c3ccc(F)cc3)nc12` (centres unmarked) [Compound Q5], the figures for the EC50 at PI3Kγ and at PI3Kα were 0.628 µM and 14.3 µM, respectively. Besides, the inhibition at 1 µM at PI3Kγ (p110 gamma) (read-out: PI3Kγ % inhib) was determined as 79%; at PI3Kα (p110α/p85α) it was 41%. The inhibition at 10 µM on PI3Kγ (p110 gamma) (read-out: PI3Kγ % inhib) turned out to be 98%; on PI3Kα (p110α/p85α), 97%. The IC50 on PI3Kγ (p110 gamma) was 0.002 µM; on PI3Kα (p110α/p85α), 0.404 µM.

As for `Cc1cccc2nc(C(C)Nc3nc(N)nc4[nH]cnc34)c(-c3ccccc3)nc12` (centres unmarked) [Compound Q4], the EC50 (usually the concentration at which the effect is half-maximal) was found to be 0.344 µM at PI3Kγ and 17.7 µM at PI3Kα. The inhibition at 0.1 µM on PI3Kγ (p110 gamma) (0.1 μM, read-out: PI3Kγ % inhib) is 36%. The inhibition at 1 µM amounted to 84% at PI3Kγ (p110 gamma) (read-out: PI3Kγ % inhib) and 18% at PI3Kα (p110α/p85α). Moreover, the inhibition at 10 µM on PI3Kγ (p110 gamma) (read-out: PI3Kγ % inhib) turned out to be 99%; at PI3Kα (p110α/p85α), 92%. The IC50 at PI3Kγ (p110 gamma) was 0.008 µM; at PI3Kα (p110α/p85α) it was 2.59 µM.

With `CCC(Nc1ncnc2[nH]cnc12)c1nc2ccccc2nc1-c1ccccc1` (centres unmarked) [Compound Q12], the EC50 at PI3Kγ and at PI3Kα was > 20 µM throughout. For the same molecule, at PI3Kγ (p110 gamma) (read-out: PI3Kγ % inhib), the inhibition at 1 µM turned out to be 44%. The inhibition at 10 µM is 96% at PI3Kγ (p110 gamma) (read-out: PI3Kγ % inhib) and 77% on PI3Kα (p110α/p85α). Besides, the IC50 on PI3Kγ (p110 gamma) is 0.762 µM; at PI3Kα (p110α/p85α), > 10 µM.

With `CCC(Nc1ncnc2[nH]cnc12)c1nc2cccc(F)c2nc1-c1ccccc1` (centres unmarked) [Compound Q9], the EC50 on PI3Kγ and on PI3Kα was > 20 µM in each case. Also, the inhibition at 1 µM at PI3Kγ (p110 gamma) (read-out: PI3Kγ % inhib) came out at 37%. Moreover, the inhibition at 10 µM worked out at 95% on PI3Kγ (p110 gamma) (read-out: PI3Kγ % inhib) and 72% on PI3Kα (p110α/p85α). For the same molecule, the IC50 was 2.15 µM on PI3Kγ (p110 gamma) and > 10 µM at PI3Kα (p110α/p85α).

Take `CC(Nc1ncnc2[nH]cnc12)c1nc2ccccc2nc1-c1ccccc1` (centres unmarked) [Compound Q1]: the concentration for a half-maximal effect (EC50) is 4.62 µM at PI3Kγ and > 20 µM on PI3Kα. For the same molecule, the values for the inhibition at 1 µM at PI3Kγ (p110 gamma) (read-out: PI3Kγ % inhib) and on PI3Kα (p110α/p85α) were 78% and 18%, respectively. The inhibition at 10 µM is 99% on PI3Kγ (p110 gamma) (read-out: PI3Kγ % inhib) and 89% at PI3Kα (p110α/p85α). Further, the IC50 on PI3Kγ (p110 gamma) was 0.147 µM; at PI3Kα (p110α/p85α), 6.92 µM.
